Measurements published in publication PMC11542721, “Molecular properties, including chameleonicity, as essential tools for designing the next generation of oral beyond rule of five drugs” (ADMET & DMPK, 2024).
Read-outs that look alike come from different tables or passages of the source.

Tests used:
[1] = Ionization behaviour from variation of log k'80 PLRP-S at three pHs; type: physicochemical; conditions: for A/B: acid or base profile: log k'80 PLRP-S at acidic, neutral and basic pH
Description: The ionization constant (usually reported as pKa) is an important parameter for evaluating ionizable molecules since it may have a decisive impact on the in vitro ADME properties. […] Since the experimental determination of pKa is not a trivial assay and a certain degree of expertise is required, Caron’s group observed that the ionization behaviour (not the pKa) of a molecule can be obtained by monitoring the variation of the log of the capacity factor in the PLRP-S system (log k'80 PLRP-S) vs. the pH [15]. […] In many cases, ionization is completely overlooked, and in some instances, it is predicted using standard calculators not designed for large, flexible molecules.
Then, we focused on experimental descriptors. We first explored the ionization behavior of the three PROTACS by monitoring the variation in log k'80 PLRP-s at three pHs.

[2] = mouse; cited from earlier work
[3] = cited from earlier work
[4] = tested on: Bcl-xL (B-cell lymphoma extra-large); set-up: method as in PMID 32677976; conditions: cancer cells, preclinical studies; cited from earlier work
[5] = IAM chromatography (log kw^IAM and Δ log kw^IAM); type: physicochemical; conditions: for log kw^IAM: IAM column, extrapolated to 0% organic solvent; for Δ log kw^IAM: polarity descriptor
Description: Furthermore, RP-HPLC methods generate biomimetic environments. For example, immobilized artificial membrane (IAM) chromatography, first introduced by Charles Pidgeon and his colleagues, is used to simulate biological cell membranes. IAM columns consist of a monolayer of phosphatidylcholine covalently bound to an inert silica support . The reference descriptor is the logarithm of the capacity factor at 0% organic solvent (extrapolated value), named log kW^IAM. In the IAM system, the retention of charged molecules also depends on the electrostatic interactions with the phospholipid heads.
Without entering the method details that can be retrieved in the literature, Δ log kw^IAM represents the polarity of the analyte.

[6] = BRlogD chromatographic lipophilicity (octanol/water surrogate)
[7] = Chamelogk chromatographic chameleonicity descriptor (PLRP-S); type: physicochemical; conditions: Exp. minus Ext. log k' 100 PLRP-S
Procedure: Therefore, we recently implemented a chromatographic descriptor, Chamelogk, that measures chameleonicity in a unique and dynamic system. To obtain Chamelogk (Figure 5B), the first step involves the experimental determination of the capacity factor (log k' PLRP-S) at 50, 60, and 70 % of acetonitrile. Then, the linear correlation between the log k' PLRP-S and the percentage of MeCN is determined. The equation derived from the linear correlation is then applied to extrapolate the capacity factor at 100 % (called Ext. log k’ 100 PLRP-S). Then, the experimental value at 100 % MeCN is measured (named Exp. log k’ 100 PLRP-S) and the difference with the extrapolated value is calculated. Thus, Chamelogk is defined as the capacity factor difference (Δ log k') between the experimental log k' measured at 100 % MeCN (Exp. log k' 100) and the extrapolated value (Ext. log k’ 100), as shown by Equation 2 and Figure 5B.

[8] = preclinical models; cited from earlier work
[9] = tested on: enzalutamide-insensitive tumours; set-up: method as in PMID 36508999; conditions: cited from earlier work
ER (estrogen receptor) = tested on: ER (estrogen receptor); set-up: method as in doi:10.1016/j.annonc.2023.09.567; conditions: tumor cell lines, in vitro; cited from earlier work
advanced breast cancer = tested on: advanced breast cancer; set-up: method as in doi:10.1016/j.annonc.2023.09.567; conditions: phase I and II, cited from earlier work
[10] = RP-HPLC, surrogate of octanol/water

SMILES	A/B: acid or base profile [1]	Oral bioavailability F [2] [%]	Absorption [3]	Degradation of Bcl-xL [4]	log kw^IAM [5]	chromatographic logD [6, 10]	Ionization state at pH 7 [1]	Chamelogk [7]	Oral bioavailability F [8] [%]	Δ log kw^IAM [5]	Tumour growth in vivo [9]	chromatographic logD [6]	ER degradation (ER (estrogen receptor))	Clinical activity (advanced breast cancer; advanced breast cancer patients)	Tolerability (advanced breast cancer; all doses orally administered)
Cc1sc2c(c1C)C(c1ccc(Cl)cc1)=N[C@@H](CC(=O)Nc1ccc(OCCOCCOCCOCCNc3cccc4c3C(=O)N(C3CCC(=O)NC3=O)C4=O)cc1)c1nnc(C)n1-2 (stereo partly drawn) [ARV-825]	nonionizable	–	–	–	–	–	–	–	–	–	–	–	–	–	–
C=C[C@@H]1C[C@]1(NC(=O)[C@@H]1C[C@@H](Oc2ncc(OC)c3ccc(Cl)cc23)CN1C(=O)[C@@H](NC(=O)OC(C)(C)C)C(C)(C)C)C(=O)NS(=O)(=O)C1CC1 [asunaprevir]	acidic	–	–	–	–	–	–	–	–	–	–	–	–	–	–
Cc1ncsc1-c1ccc([C@H](C)NC(=O)[C@@H]2C[C@@H](O)CN2C(=O)[C@@H](NC(=O)CCCCCC(=O)N2CCN(CC[C@H](CSc3ccccc3)Nc3ccc(S(=O)(=O)NC(=O)c4ccc(N5CCN(CC6=C(c7ccc(Cl)cc7)CCC(C)(C)C6)CC5)cc4)cc3S(=O)(=O)C(F)(F)F)CC2)C(C)(C)C)cc1 [DT2216]	ampholyte	< 0.03	Intravenous	selectively induced degradation of Bcl-xL	> 4	> 6	–	–	–	–	–	–	–	–	–
N#Cc1ccc(O[C@H]2CC[C@H](NC(=O)c3ccc(N4CCC(CN5CCN(c6cc7c(cc6F)C(=O)N(C6CCC(=O)NC6=O)C7=O)CC5)CC4)nn3)CC2)cc1Cl (stereo partly drawn) [ARV-110, bavdegalutamide]	basic and Base	–	Oral	–	3.20	–	predominantly neutral	0.99	> 30	0.33	significantly inhibited the growth	4.25	–	–	–
O=C1CC[C@H](N2Cc3cc(N4CCN(CC5CCN(c6ccc([C@@H]7c8ccc(O)cc8CC[C@@H]7c7ccccc7)cc6)CC5)CC4)ccc3C2=O)C(=O)N1 [ARV-471, vepdegestrant]	basic and Base	–	Oral	–	3.39	4.73	predominantly neutral	–	> 30	0.07	–	–	up to 97%	showed clinical activity	well tolerated
